{"source": "ChEMBL document CHEMBL5380808", "about": "“Design, Synthesis, and Biological Activity of Marinacarboline Analogues as STAT3 Pathway Inhibitors for Docetaxel-Resistant Triple-Negative Breast Cancer” (J Med Chem, 2023)", "key": {"[1]": {"test": "Antiproliferative activity against docetaxel-resistant human MDA-MB-231-DTR cells assessed as reduction in cell viability incubated for 72 hrs by MTT assay", "type": "functional, cell-based", "settings": "MDA-MB-231, 72 h"}, "[2]": {"test": "Synergistic antiproliferative activity against docetaxel-resistant human MDA-MB-231-DTR cells assessed as combination index at 4 uM incubated for 72 hrs in presence of 4 uM of N-(2-(1H-Indol-3-yl)ethyl)-1-(4-bromobenzoyl)-9H-pyrido(3,4-b)indole-3-carboxamide by Chou-Talalay method", "type": "functional"}, "[3]": {"test": "Synergistic antiproliferative activity against docetaxel-resistant human MDA-MB-231-DTR cells assessed as combination index at 2 uM incubated for 72 hrs in presence of 4 uM of N-(2-(1H-Indol-3-yl)ethyl)-1-(4-bromobenzoyl)-9H-pyrido(3,4-b)indole-3-carboxamide by Chou-Talalay method", "type": "functional"}, "[4]": {"test": "Synergistic antiproliferative activity against docetaxel-resistant human MDA-MB-231-DTR cells assessed as combination index at 4 uM incubated for 72 hrs in presence of 8 uM of N-(2-(1H-Indol-3-yl)ethyl)-1-(4-bromobenzoyl)-9H-pyrido(3,4-b)indole-3-carboxamide by Chou-Talalay method", "type": "functional"}, "[5]": {"test": "Synergistic antiproliferative activity against docetaxel-resistant human MDA-MB-231-DTR cells assessed as combination index at 1 uM incubated for 72 hrs in presence of 4 uM of N-(2-(1H-Indol-3-yl)ethyl)-1-(4-bromobenzoyl)-9H-pyrido(3,4-b)indole-3-carboxamide by Chou-Talalay method", "type": "functional"}, "[6]": {"test": "Fold resistance, ratio of IC50 for antiproliferative activity against docetaxel-resistant human MDA-MB-231-DTR cells to IC50 for antiproliferative activity against human MDA-MB-231 cells", "type": "functional"}, "[7]": {"system": "MDA-MB-231", "test": "Antiproliferative activity against SiRNA mediated STAT3 knockdown docetaxel-resistant human MDA-MB-231-DTR cells assessed as restoration of drug sensitivity by measuring cell viability at 0.5 to 4 uM incubated for 72 hrs by MTT assay", "type": "functional, cell-based", "settings": "dose 0.5-4 µM"}, "[8]": {"system": "MDA-MB-231", "test": "Antiproliferative activity against human MDA-MB-231 cells assessed as reduction in cell viability incubated for 72 hrs by MTT assay", "type": "functional, cell-based", "settings": "MDA-MB-231, 72 h"}, "[9]": {"test": "Synergistic antiproliferative activity against docetaxel-resistant human MDA-MB-231-DTR cells assessed as combination index at 2 uM incubated for 72 hrs in presence of 8 uM of N-(2-(1H-Indol-3-yl)ethyl)-1-(4-bromobenzoyl)-9H-pyrido(3,4-b)indole-3-carboxamide by Chou-Talalay method", "type": "functional"}, "[10]": {"system": "MDA-MB-231", "test": "Antitumor activity against docetaxel-resistant human MDA-MB-231-DTR cells xenografted in BALB/c mouse assessed as tumor growth inhibition at 5 mg/kg, ip daily for 12 days", "type": "functional, organism-based", "settings": "time 12.0 day"}, "[11]": {"system": "MDA-MB-231", "test": "Antitumor activity against docetaxel-resistant human MDA-MB-231-DTR cells xenografted in BALB/c mouse assessed as reduction in tumor volume at 5 mg/kg, ip daily for 12 days in presence of N-(2-(1H-Indol-3-yl)ethyl)-1-(4-bromobenzoyl)-9H-pyrido(3,4-b)indole-3-carboxamide", "type": "functional, organism-based", "settings": "time 12.0 day"}, "[12]": {"system": "MDA-MB-231", "test": "Antitumor activity against docetaxel-resistant human MDA-MB-231-DTR cells xenografted in BALB/c mouse assessed as reduction in tumor weight at 5 mg/kg, ip daily for 12 days in presence of N-(2-(1H-Indol-3-yl)ethyl)-1-(4-bromobenzoyl)-9H-pyrido(3,4-b)indole-3-carboxamide", "type": "functional, organism-based", "settings": "time 12.0 day"}, "[13]": {"test": "Antiproliferative activity against docetaxel-resistant human MDA-MB-231-DTR cells assessed as reduction in cell viability incubated for 72 hrs by sulforhodamine B assay", "type": "functional, cell-based", "settings": "MDA-MB-231, 72 h"}, "[14]": {"test": "Synergistic antiproliferative activity against docetaxel-resistant human MDA-MB-231-DTR cells assessed as combination index at 1 uM incubated for 72 hrs in presence of 8 uM of N-(2-(1H-Indol-3-yl)ethyl)-1-(4-bromobenzoyl)-9H-pyrido(3,4-b)indole-3-carboxamide by Chou-Talalay method", "type": "functional"}, "[15]": {"test": "Synergistic antiproliferative activity against docetaxel-resistant human MDA-MB-231-DTR cells assessed as combination index at 2 uM incubated for 72 hrs in presence of 2 uM of N-(2-(1H-Indol-3-yl)ethyl)-1-(4-bromobenzoyl)-9H-pyrido(3,4-b)indole-3-carboxamide by Chou-Talalay method", "type": "functional"}, "[16]": {"test": "Synergistic antiproliferative activity against docetaxel-resistant human MDA-MB-231-DTR cells assessed as combination index at 1 uM incubated for 72 hrs in presence of 2 uM of N-(2-(1H-Indol-3-yl)ethyl)-1-(4-bromobenzoyl)-9H-pyrido(3,4-b)indole-3-carboxamide by Chou-Talalay method", "type": "functional"}, "[17]": {"test": "Synergistic antiproliferative activity against docetaxel-resistant human MDA-MB-231-DTR cells assessed as combination index at 4 uM incubated for 72 hrs in presence of 2 uM of N-(2-(1H-Indol-3-yl)ethyl)-1-(4-bromobenzoyl)-9H-pyrido(3,4-b)indole-3-carboxamide by Chou-Talalay method", "type": "functional"}, "[18]": {"system": "MDA-MB-231", "test": "Antiproliferative activity against human MDA-MB-231 cells transfected with STAT3 plasmid to overexpress STAT3 assessed as effect on cell viability at 10 to 80 nM incubated for 72 hrs by MTT assay", "type": "functional, cell-based", "settings": "dose 10-80 nM"}}, "note": "Activity calls are given as the source filed them. The calls are words filed in the database; no cut-off is given here."}
{"smiles": "CC(=O)O[C@@]12CO[C@@H]1C[C@H](O)[C@@]1(C)C(=O)[C@H](O)C3=C(C)[C@@H](OC(=O)[C@H](O)[C@@H](NC(=O)OC(C)(C)C)c4ccccc4)C[C@@](O)([C@@H](OC(=O)c4ccccc4)[C@H]21)C3(C)C", "note": "[DOCETAXEL ANHYDROUS]", "values": [{"measurement": "IC50", "setting": "[1]", "value": 4.68, "unit": "µM"}, {"measurement": "CI", "setting": "[2]", "value": 0.37}, {"measurement": "CI", "setting": "[3]", "value": 0.53}, {"measurement": "CI", "setting": "[4]", "value": 0.32}, {"measurement": "CI", "setting": "[5]", "value": 0.38}, {"measurement": "Ratio IC50", "setting": "[6]", "value": 103.5}, {"measurement": "Activity", "setting": "[7]", "value": "Active"}, {"measurement": "IC50", "setting": "[8]", "value": 0.02, "unit": "µM"}, {"measurement": "CI", "setting": "[9]", "value": 0.45}, {"measurement": "Activity", "setting": "[10]", "value": "inactive"}, {"measurement": "Activity", "setting": "[11]", "value": "Active"}, {"measurement": "Activity", "setting": "[12]", "value": "Active"}, {"measurement": "IC50", "setting": "[13]", "value": 1.98, "unit": "µM"}, {"measurement": "CI", "setting": "[14]", "value": 0.66}, {"measurement": "CI", "setting": "[15]", "value": 0.23}, {"measurement": "CI", "setting": "[16]", "value": 0.26}, {"measurement": "CI", "setting": "[17]", "value": 0.32}, {"measurement": "Activity", "setting": "[18]", "value": "inactive"}]}
